Patent US11945794B2, “Nuclear transport modulators and uses thereof” (Karyopharm Therapeutics Inc., priority 2013, dated 2024)

Key:
Assay in all cases: MTT cell proliferation assay
Assay type in all cases: cell-based
3T3 cells = conditions: Mus musculus, NIH3T3, approximately 64-72 hours
Procedure: (§1) The MTT cell proliferation assay was used to study the cytotoxic properties of the compounds. The assay was performed according to the method described by Roche Molecular Biochemicals, with minor modifications. The assay is based on the cleavage of the tetrazolium salt, MTT, in the presence of an electron-coupling reagent. The water-insoluble formazan salt produced must be solubilized in an additional step. Cells grown in a 96-well tissue culture plate were incubated with the MTT solution for approximately 4 hours. After this incubation period, a water-insoluble formazan dye formed. After solubilization, the formazan dye was quantitated using a scanning multi-well spectrophotometer (ELISA reader). […] The cells were seeded at 5,000-10,000 cells in each well of 96-well plate in 100 μL of fresh culture medium and were allowed to attach overnight. The stock solutions of the compounds were diluted in 100 μL cell culture medium to obtain eight concentrations of each test compound, ranging from 1 nM to 30 μM. […] All optical densities were measured at 490 nm using a Vmax Kinetic Microplate Reader (Molecular Devices). In most cases, the assay was performed in duplicate and the results were presented as a mean percent inhibition to the negative control±SE. The following formula was used to calculate the percent of inhibition: Inhibition (%)=(1−(ODo/OD))×100.
(§2) The compounds were tested against Z138, MM1S and 3T3 cells. The Z138 cell line is a mature B-cell acute lymphoblastic leukemia cell line derived from a patient with chronic lumphocytic leukemia. The MM1S cell line was established from the peripheral blood of a human multiple myeloma patient. 3T3 cells are standard fibroblast cells; they were originally isolated from Swiss mouse embryo tissue.

MM1S cells = conditions: Homo sapiens, MM1.S, approximately 64-72 hours
Procedure: as §1, §2

Z138 cells = conditions: Homo sapiens, Z-138, approximately 64-72 hours
Procedure: as §1, §2

| SMILES | IC50 (3T3 cells) | IC50 (MM1S cells) | IC50 (Z138 cells) |
| --- | --- | --- | --- |
| NC(=O)/C(=C/n1cnc(-c2cc(C(F)(F)F)cc(C(F)(F)F)c2)n1)c1cccc(F)n1 [Compound 134, (E)-3-(3-(3,5-bis(trifluoromethyl)phenyl)-1H-1,2,4-triazol-1-yl)-2-(6-fluoropyridin-2-yl)acrylamide] | 0.1 to 5 µM | < 0.1 µM | 0.1 to 5 µM |
| NC(=O)/C(=C/n1cnc(-c2cc(C(F)(F)F)cc(C(F)(F)F)c2)n1)c1cncc(F)c1 [Compound 126, (E)-3-(3-(3,5-Bis(trifluoromethyl)phenyl)-1H-1,2,4-triazol-1-yl)-2-(5-fluoropyridin-3-yl)acrylamide] | > 30 µM | < 0.1 µM | < 0.1 µM |
| NC(=O)/C(=C\n1cnc(-c2cc(C(F)(F)F)cc(C(F)(F)F)c2)n1)c1cccnc1F [Compound 157, (Z)-3-(3-(3,5-bis(trifluoromethyl)phenyl)-1H-1,2,4-triazol-1-yl)-2-(2-fluoropyridin-3-yl)acrylamide] | 0.1 to 5 µM | 0.1 to 5 µM | 0.1 to 5 µM |
| N#C/C(=C/n1cnc(-c2cc(C(F)(F)F)cc(C(F)(F)F)c2)n1)c1nccs1 [Compound 110, (Z)-3-(3-(3,5-bis(trifluoromethyl)phenyl)-1H-1,2,4-triazol-1-yl)-2-(thiazol-2-yl)acrylonitrile] | – | 0.1 to 5 µM | – |
| NC(=O)/C(=C/n1cnc(-c2cc(C(F)(F)F)cc(C(F)(F)F)c2)n1)c1cccnc1Cl [Compound 144, (E)-3-(3-(3,5-bis(trifluoromethyl)phenyl)-1H-1,2,4-triazol-1-yl)-2-(2-chloropyridin-3-yl)acrylamide] | > 30 µM | 0.1 to 5 µM | 0.1 to 5 µM |
| NC(=O)/C(=C/n1cnc(-c2cc(C(F)(F)F)cc(C(F)(F)F)c2)n1)c1ccc(F)nc1 [Compound 139, (E)-3-(3-(3,5-bis(trifluoromethyl)phenyl)-1H-1,2,4-triazol-1-yl)-2-(6-fluoropyridin-3-yl)acrylamide] | > 30 µM | 0.1 to 5 µM | 0.1 to 5 µM |
| NC(=O)/C(=C/n1cnc(-c2cc(C(F)(F)F)cc(C(F)(F)F)c2)n1)c1ccc(-c2ccccc2)c(F)c1 [Compound 150, (E)-3-(3-(3,5-bis(trifluoromethyl)phenyl)-1H-1,2,4-triazol-1-yl)-2-(2-fluorobiphenyl-4-yl)acrylamide] | > 30 µM | 5 to 30 µM | 5 to 30 µM |
| NC(=O)/C(=C/n1cnc(-c2cc(C(F)(F)F)cc(C(F)(F)F)c2)n1)c1ccc(-c2cccnc2)cc1 [Compound 151, (E)-3-(3-(3,5-bis(trifluoromethyl)phenyl)-1H-1,2,4-triazol-1-yl)-2-(4-(pyridin-3-yl)phenyl)acrylamide] | > 30 µM | 0.1 to 5 µM | 5 to 30 µM |
| O=C(O)/C(=C/n1cnc(-c2cc(C(F)(F)F)cc(C(F)(F)F)c2)n1)c1cncnc1 [Compound 123, (E)-3-(3-(3,5-bis(trifluoromethyl)phenyl)-1H-1,2,4-triazol-1-yl)-2-(pyrimidin-5-yl) acrylic acid] | – | > 30 µM | – |
| CC(C)OC(=O)/C(=C/n1cnc(-c2cc(C(F)(F)F)cc(C(F)(F)F)c2)n1)c1ccncc1 [Compound 106, isopropyl (E)-3-(3-(3,5-bis(trifluoromethyl)phenyl)-1H-1,2,4-triazol-1-yl)-2-(pyridin-4-yl)acrylate] | – | 0.1 to 5 µM | – |
| O=C(O)/C(=C/n1cnc(-c2cc(C(F)(F)F)cc(C(F)(F)F)c2)n1)c1cncc(F)c1 [Compound 125, (E)-3-(3-(3,5-bis(trifluoromethyl)phenyl)-1H-1,2,4-triazol-1-yl)-2-(5-fluoropyridin-3-yl)acrylic acid] | – | > 30 µM | – |
| COc1ccc(/C(=C\n2cnc(-c3cc(C(F)(F)F)cc(C(F)(F)F)c3)n2)C(=O)O)cn1 [Compound 121, (E)-3-(3-(3,5-bis(trifluoromethyl)phenyl)-1H-1,2,4-triazol-1-yl)-2-(6-methoxypyridin-3-yl) acrylic acid] | – | > 30 µM | – |
| NC(=O)/C(=C/n1cnc(-c2cc(C(F)(F)F)cc(C(F)(F)F)c2)n1)c1ccc2cn[nH]c2c1 [Compound 152, (E)-3-(3-(3,5-bis(trifluoromethyl)phenyl)-1H-1,2,4-triazol-1-yl)-2-(1H-indazol-6-yl)acrylamide] | > 30 µM | 0.1 to 5 µM | 0.1 to 5 µM |
| O=C(O)/C(=C/n1cnc(-c2cc(C(F)(F)F)cc(C(F)(F)F)c2)n1)c1cccnc1 [Compound 103, (E)-3-(3-(3,5-bis(trifluoromethyl)phenyl)-1H-1,2,4-triazol-1-yl)-2-(pyridin-3-yl)acrylic acid] | > 30 µM | > 30 µM | > 30 µM |
| COc1ccc(/C(=C\n2cnc(-c3cc(C(F)(F)F)cc(C(F)(F)F)c3)n2)C(N)=O)cn1 [Compound 127, (E)-3-(3-(3,5-bis-(trifluoromethyl)-phenyl)-1H-1,2,4-triazol-1-yl)-2-(6-methoxypyridin-3-yl)acrylamide] | – | 0.1 to 5 µM | – |
| O=C(O)/C(=C/n1cnc(-c2cc(C(F)(F)F)cc(C(F)(F)F)c2)n1)c1ccoc1 [Compound 128, (E)-3-(3-(3,5-bis(trifluoromethyl)phenyl)-1H-1,2,4-triazol-1-yl)-2-(furan-3-yl) acrylic acid] | – | > 30 µM | – |
| CC(C)OC(=O)/C(=C/n1cnc(-c2cc(C(F)(F)F)cc(C(F)(F)F)c2)n1)c1nccs1 [Compound 109, isopropyl (Z)-3-(3-(3,5-bis(trifluoromethyl)phenyl)-1H-1,2,4-triazol-1-yl)-2-(thiazol-2-yl)acrylate] | – | 0.1 to 5 µM | – |
| NC(=O)/C(=C/n1cnc(-c2cc(C(F)(F)F)cc(C(F)(F)F)c2)n1)c1cccnc1F [Compound 135, (E)-3-(3-(3,5-bis(trifluoromethyl)phenyl)-1H-1,2,4-triazol-1-yl)-2-(2-fluoropyridin-3-yl)acrylamide] | > 30 µM | < 0.1 µM | 0.1 to 5 µM |
| NC(=O)/C(=C\n1cnc(-c2cc(C(F)(F)F)cc(C(F)(F)F)c2)n1)c1ccc(F)nc1 [Compound 154, (Z)-3-(3-(3,5-bis(trifluoromethyl)phenyl)-1H-1,2,4-triazol-1-yl)-2-(6-fluoropyridin-3-yl)acrylamide] | – | 0.1 to 5 µM | – |
| Cc1noc(C)c1/C(=C\n1cnc(-c2cc(C(F)(F)F)cc(C(F)(F)F)c2)n1)C(=O)O [Compound 117, (E)-3-(3-(3,5-bis(trifluoromethyl)phenyl)-1H-1,2,4-triazol-1-yl)-2-(3,5-dimethylisoxazol-4-yl) acrylic acid] | – | > 30 µM | – |
| CC(C)OC(=O)/C(=C/n1cnc(-c2cc(C(F)(F)F)cc(C(F)(F)F)c2)n1)c1ccoc1 [Compound 122, isopropyl (E)-3-(3-(3,5-bis (trifluoromethyl)phenyl)-1H-1,2,4-triazol-1-yl)-2-(furan-3-yl) acrylate] | – | 0.1 to 5 µM | – |
| CN(C)C(=O)/C(=C/n1cnc(-c2cc(C(F)(F)F)cc(C(F)(F)F)c2)n1)c1cccnc1 [Compound 112, (E)-3-(3-(3,5-bis(trifluoromethyl)phenyl)-1H-1,2,4-triazol-1-yl)-N,N-dimethyl-2-(pyridin-3-yl)acrylamide] | – | > 30 µM | – |
| Cn1cc(/C(=C\n2cnc(-c3cc(C(F)(F)F)cc(C(F)(F)F)c3)n2)C(=O)O)cn1 [Compound 131, (E)-3-(3-(3,5-bis(trifluoromethyl)phenyl)-1H-1,2,4-triazol-1-yl)-2-(1-methyl-1H-pyrazol-4-yl)acrylic acid] | – | 0.1 to 5 µM | – |
| NC(=O)/C(=C/n1cnc(-c2cc(C(F)(F)F)cc(C(F)(F)F)c2)n1)c1ccccc1 [Compound 146, (E)-3-(3-(3,5-bis(trifluoromethyl)phenyl)-1H-1,2,4-triazol-1-yl)-2-phenylacrylamide] | > 30 µM | 0.1 to 5 µM | 0.1 to 5 µM |
| O=C(O)/C(=C/n1cnc(-c2cc(C(F)(F)F)cc(C(F)(F)F)c2)n1)c1ccncc1 [Compound 107, (E)-3-(3-(3,5-bis(trifluoromethyl)phenyl)-1H-1,2,4-triazol-1-yl)-2-(pyridin-4-yl)acrylic acid] | – | 5 to 30 µM | – |
| NC(=O)/C(=C/n1cnc(-c2cc(C(F)(F)F)cc(C(F)(F)F)c2)n1)c1ccoc1 [Compound 129, (E)-3-(3-(3,5-bis(trifluoromethyl)phenyl)-1H-1,2,4-triazol-1-yl)-2-(furan-3-yl) acrylamide] | – | 0.1 to 5 µM | – |
| NC(=O)/C(=C/n1cnc(-c2cc(C(F)(F)F)cc(C(F)(F)F)c2)n1)c1ccnnc1 [Compound 133, (E)-3-(3-(3,5-bis(trifluoromethyl)phenyl)-1H-1,2,4-triazol-1-yl)-2-(pyridazin-4-yl)acrylamide] | 5 to 30 µM | < 0.1 µM | < 0.1 µM |
| NC(=O)/C(=C\n1cnc(-c2cc(C(F)(F)F)cc(C(F)(F)F)c2)n1)c1cncnc1 [Compound 153, (Z)-3-(3-(3,5-bis(trifluoromethyl)phenyl)-1H-1,2,4-triazol-1-yl)-2-(pyrimidin-5-yl)acrylamide] | > 30 µM | < 0.1 µM | 0.1 to 5 µM |
